Eight molecules from PubChem BioAssay (NCI) can be followed below.

Among the test systems are DU-145 prostate; SW-620 colon; U251 CNS; IGROV1 ovarian; HCT-15 colon; SK-MEL-28 melanoma; UACC-257 melanoma; MDA-MB-435; OVCAR-5 ovarian; NCI-H460 lung; RXF 393 renal; HOP-92 NSCLC; A549 NSCLC; SF-295 CNS; EKVX NSCLC; SNB-75 CNS; COLO 205 colon; MALME-3M melanoma; M14 melanoma.
Holding throughout (assay): NCI anticancer screen, dose series, 48 h

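Exposure lasted 48 hours, with cells grown in 96-well plates and compounds tested at five concentrations. TGI: total growth inhibition.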

Turning to `Nc1ncnc2c1ccn2C/C=C\CO`, the TGI in the experiment on DU-145 prostate, in the experiment on SW-620 colon, in the experiment with U251 CNS, with IGROV1 ovarian, with HCT-15 colon and in the experiment on SK-MEL-28 melanoma was over 100 µM each time. Moreover, the TGI with UACC-257 melanoma, in the experiment with MDA-MB-435, in the experiment with OVCAR-5 ovarian, in the experiment with NCI-H460 lung, with RXF 393 renal and in the experiment on HOP-92 NSCLC was over 100 µM in each case. Besides, the TGI in the experiment on A549 NSCLC, in the experiment with SF-295 CNS, in the experiment with EKVX NSCLC, with SNB-75 CNS, with COLO 205 colon and with MALME-3M melanoma was over 100 µM in each case. This molecule also registered a TGI with M14 melanoma of over 100 µM.
Consider `O=C1NC(NNc2ccccc2)=N/C1=C\c1ccccc1O`, for which the TGI with DU-145 prostate, with SW-620 colon, in the experiment on U251 CNS, in the experiment with IGROV1 ovarian, in the experiment on HCT-15 colon and with SK-MEL-28 melanoma was over 100 µM each time. The TGI with UACC-257 melanoma, in the experiment on MDA-MB-435, in the experiment on OVCAR-5 ovarian, in the experiment with NCI-H460 lung, with RXF 393 renal and with HOP-92 NSCLC was over 100 µM throughout. Besides, the TGI with A549 NSCLC, in the experiment on SF-295 CNS, in the experiment with EKVX NSCLC, with SNB-75 CNS, in the experiment on COLO 205 colon and with MALME-3M melanoma was over 100 µM in each case. Moreover, in the experiment on M14 melanoma, the TGI is over 100 µM.
Consider `C=C(CCC/C(C)=C/C=C/[C@]1(C)CCCc2ccoc21)CC(=O)O`, for which the TGI in the experiment on DU-145 prostate is 98.4 µM; with SW-620 colon, over 100 µM; with U251 CNS, over 100 µM; with IGROV1 ovarian, over 100 µM; with HCT-15 colon it was over 100 µM; in the experiment with SK-MEL-28 melanoma, over 100 µM. The TGI in the experiment on UACC-257 melanoma, with MDA-MB-435, with OVCAR-5 ovarian, in the experiment on NCI-H460 lung, in the experiment with RXF 393 renal and in the experiment with HOP-92 NSCLC was over 100 µM in each case. The TGI in the experiment on A549 NSCLC, in the experiment on SF-295 CNS, in the experiment on EKVX NSCLC, with SNB-75 CNS, in the experiment on COLO 205 colon and in the experiment with MALME-3M melanoma was over 100 µM in each case. Further, in the experiment with M14 melanoma, the TGI is over 100 µM.
In the case of `CC1(C)CC(=O)c2[nH]c3ccccc3c2CC(=O)NCCc2cn1cn2`, the TGI in the experiment with DU-145 prostate, in the experiment on SW-620 colon, in the experiment with U251 CNS, in the experiment with IGROV1 ovarian, in the experiment with HCT-15 colon and with SK-MEL-28 melanoma was over 100 µM in each case. Moreover, the TGI with UACC-257 melanoma, in the experiment with MDA-MB-435, in the experiment on OVCAR-5 ovarian, with NCI-H460 lung, in the experiment on RXF 393 renal and in the experiment on HOP-92 NSCLC was over 100 µM each time. Also, the TGI in the experiment on A549 NSCLC, in the experiment on SF-295 CNS, in the experiment on EKVX NSCLC, with SNB-75 CNS, in the experiment on COLO 205 colon and in the experiment with MALME-3M melanoma was over 100 µM throughout. The same molecule had a TGI in the experiment with M14 melanoma of over 100 µM.
For `CCCC[C@@H]1CCN2C[C@@H](O)[C@@H](O)[C@@H]2[C@H]1O`, the TGI in the experiment with DU-145 prostate, in the experiment with SW-620 colon, with U251 CNS, in the experiment with IGROV1 ovarian, in the experiment with HCT-15 colon and with SK-MEL-28 melanoma was over 100 µM throughout. Also, the TGI in the experiment on UACC-257 melanoma, in the experiment on MDA-MB-435, with OVCAR-5 ovarian, with NCI-H460 lung, in the experiment on RXF 393 renal and in the experiment with HOP-92 NSCLC was over 100 µM in each case. Also, the TGI in the experiment on A549 NSCLC, in the experiment with SF-295 CNS, in the experiment on EKVX NSCLC, in the experiment with SNB-75 CNS, with COLO 205 colon and in the experiment on MALME-3M melanoma was over 100 µM throughout. In the experiment on M14 melanoma, this molecule displayed a TGI of over 100 µM.
Consider `N#Cc1nc2ccccc2nc1N1CCN(c2ccc([N+](=O)[O-])cc2)CC1`, for which the TGI with DU-145 prostate, in the experiment with SW-620 colon, in the experiment on U251 CNS, with IGROV1 ovarian, in the experiment with HCT-15 colon and with SK-MEL-28 melanoma was over 100 µM throughout. The TGI in the experiment on UACC-257 melanoma, with MDA-MB-435, in the experiment with OVCAR-5 ovarian, with NCI-H460 lung, in the experiment on RXF 393 renal and in the experiment with HOP-92 NSCLC was over 100 µM in each case. The TGI with A549 NSCLC, in the experiment on SF-295 CNS, in the experiment on EKVX NSCLC, in the experiment with SNB-75 CNS, in the experiment on COLO 205 colon and in the experiment with MALME-3M melanoma was over 100 µM each time. In the experiment on M14 melanoma, this molecule had a TGI of over 100 µM.
In the case of `Nc1ccc(-c2nc3cc(F)ccc3s2)cc1Cl`, the TGI in the experiment with DU-145 prostate was over 100 µM; in the experiment with SW-620 colon, over 100 µM; in the experiment on U251 CNS, 55.4 µM; with IGROV1 ovarian, 42.9 µM; in the experiment on HCT-15 colon, over 100 µM; in the experiment with SK-MEL-28 melanoma, over 100 µM. Also, the TGI was over 100 µM in the experiment on UACC-257 melanoma; over 100 µM in the experiment with MDA-MB-435; 28.8 µM in the experiment on OVCAR-5 ovarian; 25 µM in the experiment on NCI-H460 lung; over 100 µM in the experiment with RXF 393 renal; over 78.9 µM in the experiment on HOP-92 NSCLC. Moreover, the TGI was over 100 µM in the experiment on A549 NSCLC; over 72.3 µM in the experiment on SF-295 CNS; over 48.2 µM in the experiment on EKVX NSCLC; 51.8 µM in the experiment on SNB-75 CNS; over 100 µM in the experiment with COLO 205 colon; 67.8 µM with MALME-3M melanoma. Moreover, the TGI with M14 melanoma was over 100 µM.
Take `NS(=O)(=O)c1ccc(N=Nc2nc3[nH]c(=O)[nH]c(=O)c3[nH]2)cc1`: the TGI in the experiment on DU-145 prostate, in the experiment with SW-620 colon, in the experiment on U251 CNS, with IGROV1 ovarian, in the experiment on HCT-15 colon and with SK-MEL-28 melanoma was over 100 µM in each case. The TGI in the experiment with UACC-257 melanoma, in the experiment with MDA-MB-435, in the experiment on OVCAR-5 ovarian, in the experiment with NCI-H460 lung, with RXF 393 renal and in the experiment with HOP-92 NSCLC was over 100 µM throughout. For the same molecule, the TGI with A549 NSCLC, in the experiment on SF-295 CNS, in the experiment with EKVX NSCLC, in the experiment with SNB-75 CNS, with COLO 205 colon and in the experiment with MALME-3M melanoma was over 100 µM in each case. In the experiment with M14 melanoma, this molecule yielded a TGI of over 100 µM.
